The values below come from patent publication US6852685B1, “Use of colostrinin, constituent peptides thereof, and analogs thereof to promote neuronal cell differentiation” (Board of Regents, The University of Texas System, priority 1999, dated 2005).

“Also recorded” adds a separate entry of the source.

This assay relates to medullary pheochromocytoma (PC12) cells. Description: Effect on morphology (differentiation) of PC12 cells. It is filed as cell-based. The settings on record: for Cell morphology: morphologies seen after treatment (list per substance, not tied to one concentration); for 1% FBS (cell differentiation) / 10% FBS (cell differentiation): six days after treatment. Here is the method:
Cells: PC12 cell line derived from medullary pheochromocytoma cells were used to undertake studies described bellow. PC 12 cells were obtained from the American Type Culture Collection and maintained in RPMI-1640 supplemented with 10% fetal bovine serum (HYCLONE Inc), penicillin (100 U/ml) and streptomycin (100 μg/ml).
Methods: To evaluate the effect of colostrum, colostrinin and its component peptides on cell differentiation 3×10^4 logarithmically replicating (70% confluence) PC12 cells were seeded in 24× well plates and cells were allowed to adhere and grow for 24 hours. Serum containing media were aspirated and replaced for serum-free RPMI containing appropriate amount of antibiotics. In four parallel, increasing concentrations (0.1, 1, 10 and 100 μg per ml) of colostrum, colostrinin and its component peptides were added directly into the media and incubated at 37° C. As a positive control, nerve growth factor (NGF) 7S (Gibco-BRL) was used at 100 ng per ml concentration (Chao, Cell, 69, 995-997 (1992); and Marshall et al., Cell 80, 179-185 (1995)). Phorbol 12-myristate 13-acetate (TPA: 10 ng per mil) was used as a negative control. Eight hours later the media were changed and RPMI-1640 was added containing 1% or 10% fetal bovine serum. The cultures were microscopically investigated 2nd, 4th and 6th days after treatment. Six days after treatment cells were fixed with paraformaldehyde (4%) and stained with 0.01% crystal violet solution. Excess of dyes were removed by ethanol washing. The final evaluation took place using a microscopy (Axiophot2 Zeiss Inc., Germany).

For the molecule `CCCCCCCCCCCCCC(=O)O[C@@H]1[C@@H](C)[C@@]2(O)[C@@H](C=C(CO)C[C@]3(O)C(=O)C(C)=C[C@@H]23)[C@@H]2C(C)(C)[C@]12OC(C)=O` [TPA, Phorbol 12-myristate 13-acetate, reference compound], the Cell morphology result was “rounded”.
Take DLEMPVLPVEPFPFV [SEQ ID NO:5]: the Cell morphology result is given as “fibroblast-like; also recorded: epitheloid; also recorded: neuron-like”. In addition, under “0.1 μg/ml”, the “1% FBS (cell differentiation)” value is recorded as “− (− = ≦0.01% (back-ground))” and the “10% FBS (cell differentiation)” value is listed as “− (− = ≦0.01% (back-ground))”. For the setting “1.0 μg/ml”, the “1% FBS (cell differentiation)” value is “− (− = ≦0.01% (back-ground))” and the “10% FBS (cell differentiation)” value is recorded as “− (− = ≦0.01% (back-ground))”. For the same molecule, the “1% FBS (cell differentiation)” value (10 μg/ml) is on record as “− (− = ≦0.01% (back-ground))”. Besides, under “100 μg/ml”, the “1% FBS (cell differentiation)” value was “− (− = ≦0.01% (back-ground))” and the “10% FBS (cell differentiation)” value is reported as “+ (+ = 1%)”.
As to DQPPDVEKPDLQPFQVQS [SEQ ID NO:3], the Cell morphology result is on record as “fibroblast-like; also recorded: neuron-like”. Under “0.1 μg/ml”, the “1% FBS (cell differentiation)” value is recorded as “− (− = ≦0.01% (back-ground))” and the “10% FBS (cell differentiation)” value is “− (− = ≦0.01% (back-ground))”. For the same molecule, under “1.0 μg/ml”, the “1% FBS (cell differentiation)” value is given as “− (− = ≦0.01% (back-ground))”. Besides, where the note is “10 μg/ml”, the “1% FBS (cell differentiation)” value is on record as “− (− = ≦0.01% (back-ground))” and the “10% FBS (cell differentiation)” value is recorded as “+ (+ = 1%)”. For the setting “100 μg/ml”, the “1% FBS (cell differentiation)” value is “− (− = ≦0.01% (back-ground))” and the “10% FBS (cell differentiation)” value was “+ (+ = 1%)”.
Take LFFFLPVVNVLP [SEQ ID NO:4]: the Cell morphology result is “fibroblast-like; also recorded: epitheloid; also recorded: neuron-like”. For the same molecule, under “0.1 μg/ml”, the “1% FBS (cell differentiation)” value was “− (− = ≦0.01% (back-ground))” and the “10% FBS (cell differentiation)” value was “− (− = ≦0.01% (back-ground))”. For the setting “1.0 μg/ml”, the “1% FBS (cell differentiation)” value is listed as “− (− = ≦0.01% (back-ground))” and the “10% FBS (cell differentiation)” value is listed as “+ (+ = 1%)”. For the setting “10 μg/ml”, the “1% FBS (cell differentiation)” value was “− (− = ≦0.01% (back-ground))” and the “10% FBS (cell differentiation)” value is recorded as “++ (++ = 1-5%)”. Besides, under “100 μg/ml”, the “1% FBS (cell differentiation)” value was “− (− = ≦0.01% (back-ground))” and the “10% FBS (cell differentiation)” value is listed as “++ (++ = 1-5%)”.
For LKPFPKLKVEVFPFP [SEQ ID NO:8], the Cell morphology entry is given as “fibroblast-like; also recorded: neuron-like”. Further, under “0.1 μg/ml”, the “1% FBS (cell differentiation)” value is “− (− = ≦0.01% (back-ground))” and the “10% FBS (cell differentiation)” value is on record as “− (− = ≦0.01% (back-ground))”. For the setting “1.0 μg/ml”, the “1% FBS (cell differentiation)” value is “− (− = ≦0.01% (back-ground))” and the “10% FBS (cell differentiation)” value is listed as “++ (++ = 1-5%)”. Moreover, under “10 μg/ml”, the “1% FBS (cell differentiation)” value was “− (− = ≦0.01% (back-ground))” and the “10% FBS (cell differentiation)” value is “+ (+ = 1%)”. Under “100 μg/ml”, the “1% FBS (cell differentiation)” value is “− (− = ≦0.01% (back-ground))” and the “10% FBS (cell differentiation)” value is on record as “− (− = ≦0.01% (back-ground))”.
Take LQTPQPLLQVMMEPQGD [SEQ ID NO:2]: the Cell morphology result is reported as “fibroblast-like; also recorded: neuron-like”. Also, the “1% FBS (cell differentiation)” value (0.1 μg/ml) is reported as “− (− = ≦0.01% (back-ground))”. Further, for the setting “1.0 μg/ml”, the “1% FBS (cell differentiation)” value is reported as “− (− = ≦0.01% (back-ground))” and the “10% FBS (cell differentiation)” value was “++ (++ = 1-5%)”. Besides, where the note is “10 μg/ml”, the “1% FBS (cell differentiation)” value was “+ (+ = 1%)” and the “10% FBS (cell differentiation)” value is “++ (++ = 1-5%)”. Under “100 μg/ml”, the “1% FBS (cell differentiation)” value is recorded as “− (− = ≦0.01% (back-ground))” and the “10% FBS (cell differentiation)” value is recorded as “+ (+ = 1%)”.
With MPQNFYKLPQM [SEQ ID NO:6], the Cell morphology result is recorded as “fibroblast-like; also recorded: epitheloid”. Moreover, where the note is “0.1 μg/ml”, the “1% FBS (cell differentiation)” value was “− (− = ≦0.01% (back-ground))” and the “10% FBS (cell differentiation)” value is reported as “− (− = ≦0.01% (back-ground))”. Also, the “1% FBS (cell differentiation)” value (1.0 μg/ml) was “− (− = ≦0.01% (back-ground))”. Also, for the setting “10 μg/ml”, the “1% FBS (cell differentiation)” value is recorded as “− (− = ≦0.01% (back-ground))” and the “10% FBS (cell differentiation)” value is recorded as “+ (+ = 1%)”. In addition, under “100 μg/ml”, the “1% FBS (cell differentiation)” value was “− (− = ≦0.01% (back-ground))” and the “10% FBS (cell differentiation)” value is recorded as “+ (+ = 1%)”.
For MQPPPLP [SEQ ID NO:1], the Cell morphology entry is reported as “epitheloid; also recorded: neuron-like”. In addition, for the setting “0.1 μg/ml”, the “1% FBS (cell differentiation)” value was “− (− = ≦0.01% (back-ground))”. Moreover, for the setting “1.0 μg/ml”, the “1% FBS (cell differentiation)” value is “− (− = ≦0.01% (back-ground))” and the “10% FBS (cell differentiation)” value is on record as “+ (+ = 1%)”. Under “10 μg/ml”, the “1% FBS (cell differentiation)” value is given as “− (− = ≦0.01% (back-ground))” and the “10% FBS (cell differentiation)” value was “++ (++ = 1-5%)”. The “1% FBS (cell differentiation)” value (100 μg/ml) is “− (− = ≦0.01% (back-ground))”.
Turning to VESYVPLFP [SEQ ID NO:31], the Cell morphology entry is “fibroblast-like; also recorded: neuron-like”. Also, the “1% FBS (cell differentiation)” value (1.0 μg/ml) is reported as “− (− = ≦0.01% (back-ground))”. Moreover, the “1% FBS (cell differentiation)” value (10 μg/ml) is “− (− = ≦0.01% (back-ground))”. Moreover, under “0.1 μg/ml”, the “10% FBS (cell differentiation)” value is “− (− = ≦0.01% (back-ground))”.
With VLEMKFPPPPQETVT [SEQ ID NO:7], the Cell morphology result is “fibroblast-like; also recorded: neuron-like”. For the setting “0.1 μg/ml”, the “1% FBS (cell differentiation)” value is reported as “− (− = ≦0.01% (back-ground))” and the “10% FBS (cell differentiation)” value is recorded as “− (− = ≦0.01% (back-ground))”. Also, where the note is “1.0 μg/ml”, the “1% FBS (cell differentiation)” value is given as “− (− = ≦0.01% (back-ground))” and the “10% FBS (cell differentiation)” value is on record as “+ (+ = 1%)”. For the setting “10 μg/ml”, the “1% FBS (cell differentiation)” value is “− (− = ≦0.01% (back-ground))” and the “10% FBS (cell differentiation)” value is on record as “+ (+ = 1%)”. Where the note is “100 μg/ml”, the “1% FBS (cell differentiation)” value is listed as “− (− = ≦0.01% (back-ground))”.
